US20250289789A1, “REVERSIBLE LYSINE COVALENT MODIFIERS OF CDK2 AND USES THEREOF” (Terremoto Biosciences, Inc., priority 2023, published 2025)
Like-named read-outs stand apart in the source and are kept apart here.

Key:
Format in all cases: cell-based
[1] = tested on: Phospho-Rb Ser807/811 in OVCAR3 cells; experiment: OVCAR3 Phospho-Rb Ser807/811 HTRF assay; details: Homo sapiens, OVCAR3 cells, Phospho-Rb Ser807/811 HTRF, 1 hour incubation, read-out: pRb-OVCAR3 IC50
Description: Cells were trypsinized and resuspended in 1 mM hydroxyurea (Sigma; H8627), 90% RPMI and 10% fetal bovine serum. […] Dose response curve normalized to DMSO control was plotted using four-parameter logistic model for IC50 calculation.

[2] = biological target: T1, CDK4-NanoLuc fusion with CCND1 in 293T or 293 cells (Homo sapiens, UniProt P11802); experiment: NanoBRET Target Engagement (TE) Intracellular Kinase Assay, CDK4/CCND1; details: NanoBRET TE intracellular kinase assay, 2-hour incubation, read-out: NanoBRET-CDK4/D1 IC50
T1 construct: host or cells: 293T (ATCC CRL-3216) or 293 (ATCC CRL-1573)

[3] = biological target: T2, CDK1-NanoLuc fusion with CCNB1 in 293T or 293 cells (Homo sapiens, UniProt P06493); experiment: NanoBRET Target Engagement (TE) Intracellular Kinase Assay, CDK1/CCNB1; details: NanoBRET TE intracellular kinase assay, 2-hour incubation, read-out: NanoBRET-CDK1/B1 IC50
T2 construct: host or cells: 293T (ATCC CRL-3216) or 293 (ATCC CRL-1573)
In short: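 IC50 derived by four-parameter logistic fit of DMSO-normalized acceptor/donor (610/450 nm) BRET ratio. Compound and Tracer K-10 were applied together for 2 h at 37° C to 293 or 293T cells transfected 24 h earlier with CDK1-NanoLuc fusion and cyclin B1.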

[4] = biological target: T3, CDK2-NanoLuc fusion with CCNE1 in 293T or 293 cells (Homo sapiens, UniProt P24941); experiment: NanoBRET Target Engagement (TE) Intracellular Kinase Assay, CDK2/CCNE1; details: 2-hour incubation
T3 construct: host or cells: 293T (ATCC CRL-3216) or 293 (ATCC CRL-1573)

[5] = NanoBRET TE intracellular kinase assay, read-out: NanoBRET-CDK2/E1 IC50
[6] = NanoBRET-CDK2/E1 IC50, NanoBRET TE intracellular kinase assay

T1 sequence (P11802 whole entry, the tested form may be a part): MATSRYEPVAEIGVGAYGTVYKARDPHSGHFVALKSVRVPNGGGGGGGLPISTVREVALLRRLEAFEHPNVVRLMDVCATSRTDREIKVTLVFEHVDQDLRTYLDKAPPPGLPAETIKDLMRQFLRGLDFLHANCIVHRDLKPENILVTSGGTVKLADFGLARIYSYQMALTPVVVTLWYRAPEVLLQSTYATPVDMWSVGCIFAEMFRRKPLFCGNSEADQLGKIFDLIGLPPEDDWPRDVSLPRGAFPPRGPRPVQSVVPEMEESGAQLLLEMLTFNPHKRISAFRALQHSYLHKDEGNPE
T1 sequence (P24385 whole entry partner, the tested form may be a part): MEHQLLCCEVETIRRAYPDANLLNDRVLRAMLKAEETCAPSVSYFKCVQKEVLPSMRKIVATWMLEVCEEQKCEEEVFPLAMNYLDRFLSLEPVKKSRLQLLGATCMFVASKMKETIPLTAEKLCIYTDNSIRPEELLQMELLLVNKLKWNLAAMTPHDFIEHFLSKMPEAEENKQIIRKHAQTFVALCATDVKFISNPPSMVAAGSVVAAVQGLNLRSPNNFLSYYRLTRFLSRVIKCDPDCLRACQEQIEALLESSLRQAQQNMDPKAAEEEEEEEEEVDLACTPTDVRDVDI
T2 sequence (P06493 whole entry, the tested form may be a part): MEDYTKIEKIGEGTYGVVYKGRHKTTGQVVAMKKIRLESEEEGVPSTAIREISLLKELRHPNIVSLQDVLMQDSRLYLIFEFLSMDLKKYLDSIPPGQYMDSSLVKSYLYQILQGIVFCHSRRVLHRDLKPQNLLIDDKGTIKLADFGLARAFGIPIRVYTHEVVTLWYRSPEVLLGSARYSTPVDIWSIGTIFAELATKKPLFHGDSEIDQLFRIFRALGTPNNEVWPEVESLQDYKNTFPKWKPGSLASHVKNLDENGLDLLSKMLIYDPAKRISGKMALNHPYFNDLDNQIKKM
T2 sequence (P14635 whole entry partner, the tested form may be a part): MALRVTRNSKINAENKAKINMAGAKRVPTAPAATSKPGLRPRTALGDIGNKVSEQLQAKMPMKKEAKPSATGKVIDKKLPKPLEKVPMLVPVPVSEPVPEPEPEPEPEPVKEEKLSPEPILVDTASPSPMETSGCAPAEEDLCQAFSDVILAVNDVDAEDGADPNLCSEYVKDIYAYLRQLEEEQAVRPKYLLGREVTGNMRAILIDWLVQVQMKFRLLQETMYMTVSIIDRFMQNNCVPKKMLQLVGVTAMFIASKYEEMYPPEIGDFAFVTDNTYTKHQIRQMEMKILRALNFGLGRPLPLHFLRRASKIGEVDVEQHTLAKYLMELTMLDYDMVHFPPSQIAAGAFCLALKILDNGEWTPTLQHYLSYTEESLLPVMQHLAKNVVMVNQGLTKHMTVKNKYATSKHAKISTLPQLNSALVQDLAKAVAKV

SMILES: COc1cccc(OCC(=O)Nc2cc([C@H]3CC[C@@H](OC(=O)NC(C)C)C3)[nH]n2)c1C=O [Compound 95, (1R,3S)-3-{5-[2-(2-formyl-3-methoxyphenoxy)acetamido]-2H-pyrazol-3-yl}cyclopentyl N-isopropylcarbamate; trifluoroacetic acid]
- IC50 ([1]; OVCAR-3, 1 h): 115 nM
- IC50 [2]: > 10000 nM
- IC50 [3]: 21.5 nM
- IC50 [4, 5]: 1.26 nM

SMILES: CC(C)NC(=O)O[C@@H]1CC[C@H](c2cc(NC(=O)CSc3cccc(O)c3C=O)n[nH]2)C1 [Compound 96, (1R,3S)-3-(5-{2-[(2-formyl-3-hydroxyphenyl)sulfanyl]acetamido}-2H-pyrazol-3-yl)cyclopentyl N-isopropylcarbamate; trifluoroacetic acid]
- IC50 ([1]; OVCAR-3, 1 h): 601 nM
- IC50 [2]: 1820 nM
- IC50 [3]: 129 nM
- IC50 [4, 5]: 7.13 nM

SMILES: CC(C)NC(=O)O[C@@H]1CC[C@H](c2cc(NC(=O)COc3cccc(Cl)c3C=O)n[nH]2)C1 [Compound 97, (1R,3S)-3-{5-[2-(3-chloro-2-formylphenoxy)acetamido]-2H-pyrazol-3-yl}cyclopentyl N-isopropylcarbamate]
- IC50 ([1]; OVCAR-3, 1 h): 3020 nM
- IC50 [2]: 9440 nM
- IC50 [3]: 1140 nM
- IC50 [4, 5]: 8.75 nM

SMILES: CC(C)NC(=O)O[C@@H]1CC[C@H](c2cc(NC(=O)COc3cccc(-c4nccs4)c3C=O)n[nH]2)C1 [Compound 98, (1R,3S)-3-(3-(2-(2-formyl-3-(thiazol-2-yl)phenoxy)acetamido)-1H-pyrazol-5-yl)cyclopentyl isopropylcarbamate]
- IC50 ([1]; OVCAR-3, 1 h): 3340 nM
- IC50 [2]: > 10000 nM
- IC50 [3]: 1490 nM
- IC50 [4, 5]: 12 nM

SMILES: C#Cc1cc(O)c(C=O)c(OCC(=O)Nc2cc([C@H]3CC[C@@H](OC(=O)NC(C)C)C3)[nH]n2)c1 [Compound 99, (1R,3S)-3-(3-(2-(5-ethynyl-2-formyl-3-hydroxyphenoxy)acetamido)-1H-pyrazol-5-yl)cyclopentyl isopropylcarbamate]
- IC50 ([1]; OVCAR-3, 1 h): 259 nM
- IC50 [2]: > 10000 nM
- IC50 [3]: 21.4 nM
- IC50 [4, 5]: 3.14 nM

SMILES: CC(C)NC(=O)O[C@@H]1CC[C@H](c2cc(NC(=O)COc3cc(OC(F)F)cc(O)c3C=O)n[nH]2)C1 [Compound 100, (1R,3S)-3-(5-{2-[5-(difluoromethoxy)-2-formyl-3-hydroxyphenoxy]acetamido}-2H-pyrazol-3-yl)cyclopentyl N-isopropylcarbamate]
- IC50 ([1]; OVCAR-3, 1 h): 120 nM
- IC50 [2]: 8710 nM
- IC50 [3]: 12.8 nM
- IC50 [4, 5]: 7.32 nM

SMILES: C[C@@H]1CCCN1C(=O)O[C@@H]1CC[C@H](c2cc(NC(=O)COc3cccc(O)c3C=O)n[nH]2)C1 [Compound 101, (1R,3S)-3-{5-[2-(2-formyl-3-hydroxyphenoxy)acetamido]-2H-pyrazol-3-yl}cyclopentyl (2R)-2-methylpyrrolidine-1-carboxylate; trifluoro-acetic acid]
- IC50 ([1]; OVCAR-3): 188 nM
- IC50 [2]: 9200 nM
- IC50 [3]: 20.3 nM
- IC50 [4, 6]: 5.79 nM

SMILES: C[C@H]1CCCN1C(=O)O[C@@H]1CC[C@H](c2cc(NC(=O)COc3cccc(O)c3C=O)n[nH]2)C1 [Compound 102, (S)-((1R,3S)-3-(3-(2-(2-formyl-3-hydroxyphenoxy)acetamido)-1H-pyrazol-5-yl)cyclopentyl) 2-methylpyrrolidine-1-carboxylate; trifluoroacetic acid]
- IC50 ([1]; OVCAR-3): 78.2 nM
- IC50 [2]: 2860 nM
- IC50 [3]: 8.39 nM
- IC50 [4, 6]: 4.16 nM

SMILES: COc1cccc(OCC(=O)Nc2cc([C@H]3CC[C@@H](OC(=O)NC4(C)CCC4)C3)[nH]n2)c1C=O [Compound 105, (1R,3S)-3-{5-[2-(2-formyl-3-methoxyphenoxy)acetamido]-2H-pyrazol-3-yl}cyclopentyl N-(1-methylcyclobutyl)carbamate; trifluoroacetic acid]
- IC50 ([1]; OVCAR-3, 1 h): 65.8 nM
- IC50 [2]: 2350 nM
- IC50 [3]: 2.18 nM
- IC50 [4, 5]: 1.01 nM

SMILES: COc1cccc(-c2cc(C(=O)Nc3cc([C@H]4CC[C@@H](OC(=O)NC(C)C)C4)[nH]n3)n(C)n2)c1C=O [Compound 106, (1R,3S)-3-{5-[5-(2-formyl-3-methoxyphenyl)-2-methylpyrazole-3-amido]-2H-pyrazol-3-yl}cyclopentyl N-isopropylcarbamate; trifluoroacetic acid]
- IC50 ([1]; OVCAR-3, 1 h): 306 nM
- IC50 [2]: 3330 nM
- IC50 [3]: 15.4 nM
- IC50 [4, 5]: 4.3 nM

SMILES: CC(C)NC(=O)O[C@@H]1CC[C@H](c2cc(NC(=O)[C@H]3C[C@H](c4cccc(O)c4C=O)C3)n[nH]2)C1 [Compound 107, (1R,3S)-3-(3-((1r,3S)-3-(2-formyl-3-hydroxyphenyl)cyclobutane-1-carboxamido)-1H-pyrazol-5-yl)cyclopentyl isopropylcarbamate]
- IC50 ([1]; OVCAR-3, 1 h): 59.6 nM
- IC50 [2]: 224 nM
- IC50 [3]: 12 nM
- IC50 [4, 5]: 4.4 nM

SMILES: COc1cc(OC)c(C=O)c(OCC(=O)Nc2cc([C@H]3C[C@@H](OC(=O)N4C5COCC4C5)C3)[nH]n2)c1 [Compound 108, (1s,3s)-3-(3-(2-(2-formyl-3,5-dimethoxyphenoxy)acetamido)-1H-pyrazol-5-yl)cyclobutyl 3-oxa-6-azabicyclo[3.1.1]heptane-6-carboxylate]
- IC50 ([1]; OVCAR-3, 1 h): 44.4 nM
- IC50 [2]: > 10000 nM
- IC50 [3]: 15.2 nM
- IC50 [4, 5]: 3.65 nM

SMILES: COc1cc(OC)c(C=O)c(OCC(=O)Nc2cc([C@H]3C[C@@H](OC(=O)N4CCC4(C)C)C3)[nH]n2)c1 [Compound 109, (1s,3s)-3-(3-(2-(2-formyl-3,5-dimethoxyphenoxy)acetamido)-1H-pyrazol-5-yl)cyclobutyl 2,2-dimethylazetidine-1-carboxylate]
- IC50 ([1]; OVCAR-3, 1 h): 17.6 nM
- IC50 [2]: 4370 nM
- IC50 [3]: 4.14 nM
- IC50 [4, 5]: 1.85 nM

SMILES: CCCNC(=O)O[C@H]1C[C@@H](c2cc(NC(=O)COc3cc(OC)cc(OC)c3C=O)n[nH]2)C1 [Compound 110, (1s,3s)-3-(3-(2-(2-formyl-3,5-dimethoxyphenoxy)acetamido)-1H-pyrazol-5-yl)cyclobutyl propylcarbamate]
- IC50 ([1]; OVCAR-3, 1 h): 27.7 nM
- IC50 [2]: 5360 nM
- IC50 [3]: 7.64 nM
- IC50 [4, 5]: 2.9 nM

SMILES: COc1cc(O)c(C=O)c(OCC(=O)Nc2cc([C@H]3C[C@@H](OC(=O)N4C5COCC4C5)C3)[nH]n2)c1 [Compound 111, (1s,3s)-3-(3-(2-(2-formyl-3-hydroxy-5-methoxyphenoxy)acetamido)-1H-pyrazol-5-yl)cyclobutyl 3-oxa-6-azabicyclo[3.1.1]heptane-6-carboxylate]
- IC50 ([1]; OVCAR-3, 1 h): 79.8 nM
- IC50 [2]: > 10000 nM
- IC50 [3]: 21 nM
- IC50 [4, 5]: 5.45 nM

SMILES: COc1cc(O)c(C=O)c(OCC(=O)Nc2cc([C@H]3C[C@@H](OC(=O)N4CCCC4)C3)[nH]n2)c1 [Compound 112, (1s,3s)-3-(3-(2-(2-formyl-3-hydroxy-5-methoxyphenoxy)acetamido)-1H-pyrazol-5-yl)cyclobutyl pyrrolidine-1-carboxylate]
- IC50 ([1]; OVCAR-3, 1 h): 149 nM
- IC50 [2]: > 10000 nM
- IC50 [3]: 36 nM
- IC50 [4, 5]: 4.69 nM

SMILES: COc1cc(O)c(C=O)c(OCC(=O)Nc2cc([C@H]3C[C@@H](OC(=O)NC(C)C)C3)[nH]n2)c1 [Compound 113, (1s,3s)-3-(3-(2-(2-formyl-3-hydroxy-5-methoxyphenoxy)acetamido)-1H-pyrazol-5-yl)cyclobutyl isopropylcarbamate]
- IC50 ([1]; OVCAR-3, 1 h): 61.6 nM
- IC50 [2]: > 10000 nM
- IC50 [3]: 11.4 nM
- IC50 [4, 5]: 4.13 nM

SMILES: CC(C)NC(=O)O[C@H]1C[C@@H](c2cc(NC(=O)COc3cccc(O)c3C=O)n[nH]2)C1 [Compound 114, (1s,3s)-3-(3-(2-(2-formyl-3-hydroxyphenoxy)acetamido)-1H-pyrazol-5-yl)cyclobutyl isopropylcarbamate]
- IC50 ([1]; OVCAR-3, 1 h): 121 nM
- IC50 [2]: > 10000 nM
- IC50 [3]: 26.7 nM
- IC50 [4, 5]: 4.44 nM

SMILES: COc1cc(O)c(C=O)c(OCC(=O)Nc2cc([C@H]3CC[C@@H](OC(=O)NC(C)(C)C)C3)[nH]n2)c1 [Compound 128, (1R,3S)-3-(3-(2-(2-formyl-3-hydroxy-5-methoxyphenoxy)acetamido)-1H-pyrazol-5-yl)cyclopentyl tert-butylcarbamate]
- IC50 ([1]; OVCAR-3, 1 h): 34.8 nM
- IC50 [2]: 961 nM
- IC50 [3]: 5.09 nM
- IC50 [4, 5]: 2.42 nM

SMILES: COc1cc(O)c(C=O)c(OCC(=O)Nc2cc([C@H]3CC[C@@H](OC(=O)N[C@H]4C[C@H]4F)C3)[nH]n2)c1 [Compound 132]
- IC50 ([1]; OVCAR-3, 1 h): 22 nM
- IC50 [2]: 2940 nM
- IC50 [3]: 10.8 nM
- IC50 [4, 5]: 3.39 nM

SMILES: COc1cc(O)c(C=O)c(OCC(=O)Nc2cc([C@H]3CC[C@@H](OC(=O)N(C)N(C)C)C3)[nH]n2)c1 [Compound 172, (1R,3S)-3-(3-(2-(2-formyl-3-hydroxy-5-methoxyphenoxy)acetamido)-1H-pyrazol-5-yl)cyclopentyl 1,2,2-trimethylhydrazine-1-carboxylate]
- IC50 ([1]; OVCAR-3, 1 h): 132 nM
- IC50 [2]: > 10000 nM
- IC50 [3]: 25.2 nM
- IC50 [4, 5]: 3.95 nM

SMILES: Cc1cc(O)c(C=O)c(OCC(=O)Nc2cc([C@H]3CC[C@@H](OC(=O)N4C5COCC4C5)C3)[nH]n2)c1 [Compound 199]
- IC50 ([1]; OVCAR-3, 1 h): 58.5 nM
- IC50 [2]: 6500 nM
- IC50 [3]: 19.9 nM
- IC50 [4, 5]: 3.76 nM
